# From ChEMBL document CHEMBL4814003, “Novel dual-mode antitumor chlorin-based derivatives as potent photosensitizers and histone deacetylase inhibitors for photodynamic therapy and chemotherapy” (Eur J Med Chem, 2021)
# Active and inactive are the calls of the source. The rule behind the calls is not given here.
# Tests used:
# [1] = system: HCT-116; test: Dark toxicity in human HCT-116 cells assessed as reduction in cell viability incubated under dark for 48 hrs measured after 48 hrs by CCK8 assay; assay type: functional, cell-based; conditions: HCT-116, 48 h
# [2] = system: HCT-116; test: Phototoxicity in human HCT-116 cells assessed as reduction in cell viability irradiated 10 j/cm2 for 24 hrs followed by incubated for 24 hrs by CCK8 assay; assay type: functional, cell-based; conditions: HCT-116, light or radiation study
# [3] = target: Histone deacetylase 2 (Homo sapiens, UniProt Q92769); test: Inhibition of human recombinant HDAC2 using Ac-Leu-Gly-Lys(Ac)-AMC as substrate by measuring fluorescence intensity incubated for 30 mins by microplate reader assay
# [4] = target: T1, Protein deacetylase HDAC6 (Homo sapiens, UniProt Q9UBN7); test: Inhibition of human recombinant HDAC6 using Ac-Leu-Gly-Lys(Ac)-AMC as substrate by measuring fluorescence intensity incubated for 30 mins by microplate reader assay
# T1 sequence (Q9UBN7 whole entry): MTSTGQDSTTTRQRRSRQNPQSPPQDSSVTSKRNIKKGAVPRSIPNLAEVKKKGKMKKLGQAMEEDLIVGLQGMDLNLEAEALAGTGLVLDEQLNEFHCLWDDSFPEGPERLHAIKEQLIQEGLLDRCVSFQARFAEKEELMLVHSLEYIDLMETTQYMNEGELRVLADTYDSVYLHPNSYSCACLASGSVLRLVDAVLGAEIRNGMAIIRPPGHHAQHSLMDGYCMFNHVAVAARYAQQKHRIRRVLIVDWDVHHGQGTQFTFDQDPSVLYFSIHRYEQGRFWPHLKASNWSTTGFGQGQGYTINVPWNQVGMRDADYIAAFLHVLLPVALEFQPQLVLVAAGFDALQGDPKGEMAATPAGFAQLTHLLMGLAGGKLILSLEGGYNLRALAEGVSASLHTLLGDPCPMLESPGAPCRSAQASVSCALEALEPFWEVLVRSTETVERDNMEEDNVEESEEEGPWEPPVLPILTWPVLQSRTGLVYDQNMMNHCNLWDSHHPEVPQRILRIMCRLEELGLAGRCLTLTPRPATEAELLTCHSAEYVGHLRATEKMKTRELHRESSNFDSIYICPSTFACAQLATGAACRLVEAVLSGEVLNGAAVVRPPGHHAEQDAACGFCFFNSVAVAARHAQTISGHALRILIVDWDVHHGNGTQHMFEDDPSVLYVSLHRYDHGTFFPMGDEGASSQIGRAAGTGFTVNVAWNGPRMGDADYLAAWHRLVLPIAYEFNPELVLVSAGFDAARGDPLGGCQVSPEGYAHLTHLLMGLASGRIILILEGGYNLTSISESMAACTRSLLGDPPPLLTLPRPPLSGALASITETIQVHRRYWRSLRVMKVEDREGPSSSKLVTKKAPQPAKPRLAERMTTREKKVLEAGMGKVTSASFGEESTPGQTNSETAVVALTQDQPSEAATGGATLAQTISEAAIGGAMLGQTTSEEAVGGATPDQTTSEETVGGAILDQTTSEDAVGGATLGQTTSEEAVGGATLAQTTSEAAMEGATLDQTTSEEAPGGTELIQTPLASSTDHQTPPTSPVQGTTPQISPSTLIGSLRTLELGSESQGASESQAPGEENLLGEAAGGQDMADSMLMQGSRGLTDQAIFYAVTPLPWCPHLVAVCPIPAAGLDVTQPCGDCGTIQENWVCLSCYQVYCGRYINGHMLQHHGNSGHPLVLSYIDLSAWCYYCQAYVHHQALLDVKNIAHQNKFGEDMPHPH
# [5] = target: T2, Polyamine deacetylase HDAC10 (Homo sapiens, UniProt Q969S8); test: Inhibition of human recombinant HDAC10 using Ac-Leu-Gly-Lys(Ac)-AMC as substrate by measuring fluorescence intensity incubated for 30 mins by microplate reader assay
# T2 sequence (Q969S8 whole entry): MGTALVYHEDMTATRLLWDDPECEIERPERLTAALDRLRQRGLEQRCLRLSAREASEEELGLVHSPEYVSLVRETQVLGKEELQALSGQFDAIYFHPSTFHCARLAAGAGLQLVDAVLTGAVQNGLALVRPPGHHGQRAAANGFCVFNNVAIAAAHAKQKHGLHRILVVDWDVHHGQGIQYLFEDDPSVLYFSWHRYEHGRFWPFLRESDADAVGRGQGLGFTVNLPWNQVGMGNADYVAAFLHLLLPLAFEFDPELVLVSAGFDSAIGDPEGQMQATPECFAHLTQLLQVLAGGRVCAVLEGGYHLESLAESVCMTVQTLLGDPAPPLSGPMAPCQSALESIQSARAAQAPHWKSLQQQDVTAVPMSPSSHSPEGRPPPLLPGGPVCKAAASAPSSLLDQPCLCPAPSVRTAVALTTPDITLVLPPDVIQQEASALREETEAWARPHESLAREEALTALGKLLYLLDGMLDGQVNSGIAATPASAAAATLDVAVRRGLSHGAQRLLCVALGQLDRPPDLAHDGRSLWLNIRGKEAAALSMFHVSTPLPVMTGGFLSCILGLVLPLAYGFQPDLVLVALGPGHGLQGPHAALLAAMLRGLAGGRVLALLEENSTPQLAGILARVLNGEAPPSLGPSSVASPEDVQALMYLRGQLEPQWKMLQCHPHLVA
# [6] = system: A549; test: Induction of apoptosis in human A549 cells assessed as apoptotic cells at 0.5 uM in absence of light irradiation incubated for 48 hrs by annexin V-FITC staining based flow cytometry; assay type: functional
# [7] = system: A549; test: Induction of apoptosis in human A549 cells assessed as apoptotic cells at 0.01 uM in presence of light irradiation incubated for 48 hrs by annexin V-FITC staining based flow cytometry; assay type: functional
# [8] = Drug uptake in human A549 cells after 24 hrs by fluorescence spectrophotometer analysis relative to tala-porfin; assay type: ADME, cell-based; conditions: a549, 24 h
# [9] = Drug uptake in human A549 cells assessed as compound localization in ER at 0.1 uM measured after 24 hrs by ERtracker Green dye based laser confocal microscopy; assay type: ADME, subcellular, Endoplasmic reticulum; conditions: a549, 24 h
# [10] = Drug uptake in human A549 cells assessed as compound localization in golgi at 0.1 uM measured after 24 hrs by Golgi tracker Green dye based laser confocal microscopy; assay type: ADME, subcellular, Golgi body; conditions: a549, 24 h
# [11] = system: A549; test: Induction of autophagy in human A549 cells irradiated 10 j/cm2 at 0.1 uM after 24 hrs using fluorescent molecule DAPRed; assay type: functional
# Chain of Histone deacetylase 2 (Q92769 whole entry): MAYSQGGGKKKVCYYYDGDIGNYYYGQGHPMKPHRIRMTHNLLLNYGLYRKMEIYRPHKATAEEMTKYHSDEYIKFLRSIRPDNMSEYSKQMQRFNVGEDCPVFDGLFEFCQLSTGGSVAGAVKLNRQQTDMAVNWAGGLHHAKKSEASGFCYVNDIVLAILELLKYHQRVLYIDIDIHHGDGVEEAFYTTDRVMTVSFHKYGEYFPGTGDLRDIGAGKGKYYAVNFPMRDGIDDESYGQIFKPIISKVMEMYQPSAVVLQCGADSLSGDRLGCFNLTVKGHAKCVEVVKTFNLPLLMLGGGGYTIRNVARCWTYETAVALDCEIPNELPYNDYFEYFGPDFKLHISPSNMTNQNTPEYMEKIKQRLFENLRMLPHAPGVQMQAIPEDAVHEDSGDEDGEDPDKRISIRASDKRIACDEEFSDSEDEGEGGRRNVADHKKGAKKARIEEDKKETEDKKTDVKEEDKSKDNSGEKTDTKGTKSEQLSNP
smiles,measurement,setting,value
C=Cc1c(C)c2cc3nc(c(C(=O)OC)c4[nH]c(cc5nc(cc1[nH]2)C(C)=C5CC)c(C)c4C(=O)OC)[C@@H](CCC(=O)Nc1ccc(C(=O)Nc2ccccc2N)cc1)[C@@H]3C,IC50,[1],2790 nM
same,IC50,[2],6 nM
same,IC50,[3],2650 nM
same,IC50,[4],> 100000 nM
same,IC50,[5],> 100000 nM
same,Activity,[6],54.74%
same,Activity,[7],27.32%
same,fold change (FC),[8],9
same,Drug uptake,[9],Active
same,Drug uptake,[10],Active
same,Activity,[11],Active
